Like-named read-outs stand apart in the source and are kept apart here.

Results on 16 compounds are retold here after PMC4627826, “Synthesis and Biological Evaluation of Novel Gigantol Derivatives as Potential Agents in Prevention of Diabetic Cataract” (PLoS ONE, 2015).

One data set addresses T1, aldose reductase (AR) (Homo sapiens, UniProt P15121).
T1 construct: purchased Prospec-TanyTechnogene Ltd. (Israel)
Briefly: AR inhibition assay (NADPH absorbance decrease at 340 nm, DL-glyceraldehyde substrate). The note with it: for IC50: mean ± SD (n = 3), NA = no activity. Format: biochemical. As for the experimental part:
AR was purchased from Prospec-TanyTechnogene Ltd. (Israel). AR activity was evaluated as previously described. Briefly, the reaction mixture was composed of enzyme solution ([…], 20 μL), NADPH (0.104 mmol·L^-1, 50 μL; Italian Roth, Italy), DL-glyceraldehyde (10 mmol·L^-1, 50 μL; Sigma, U.S.), buffer phosphate (0.1 mol·L^-1), and selected concentrations of test compounds. The reaction was initiated by the addition of DL-glyceraldehyde as the substrate, and PBS was used as the blank control. The use of NAPDH, in parallel to AR activity, was monitored at room temperature for 10 min at 40 s intervals at 340 nm in an EnSpire™ Multimode Plate Reader. […] All assays were performed in triplicate.

The test system of data set [1] is human lens epithelial cells (HLECs; SRA 01/04). The experiment in a line: Cell viability (MTT) of HLECs treated with D-galactose. In kind it is cell-based. Particulars: for protection of HLECs from apoptosis (concentration not given): D-galactose-induced, tested at 0.1, 0.5, 1.0 μg·mL^-1. Here is the method:
Human lens epithelial cells (HLECs; SRA 01/04) were obtained from Dr. Fu Shang, USDA HNRCA at Tufts University, Boston, MA, U.S. and Zhongshan Ophthalmic Center, Sun Yat-sen University, Guangzhou, P. R. China and cultured in minimal essential medium (MEM) supplemented with 20% fetal bovine serum (FBS) and a cocktail of Penicillin-Streptomycin at 37°C in a humid environment containing 5% CO2 [52]. Cells were harvested at 80% confluency by trypsinization, and then fresh culture medium was added to generate single-cell suspensions for use in cell viability assays. HLECs were then seeded in 96-well cell culture grade microplates at a density of 1 × 10^5·mL^-1. After 24 h of incubation, the cells were treated for 72 h with 250 mmol·L^-1 D-galactose with and without test compounds (0.1, 0.5, or 1.0 μg·mL^-1).
Cell viability was assessed using an MTT assay. After the treatments, 20 μL of 5 mg·mL^-1 MTT solution was added to each well, followed by incubation for 4 h at 37°C. The resulting formazan crystals were then dissolved in 150 μL DMSO and absorbance measured at 570 nm using an EnSpire™ Multimode Plate Reader. The results are presented as percentages of cell survival as compared to the untreated control group, and all assays were performed in triplicate.

Data set [2] concerns the target inducible nitric oxide synthase (iNOS) (Homo sapiens, UniProt P35228). Briefly: iNOS inhibition assay (Nitric Oxide Synthase Assay Kit, NO production). Format: biochemical. The note with it: mean ± SD (n = 3); NA = no activity; read-out: IC50, inhibitory effect on iNOS activity. As for the experimental part:
iNOS produces NO by catalyzing a reaction involving L-Arg and oxygen. Its activity was assessed by monitoring NO production using a Nitric Oxide Synthase Assay Kit (Nanjing Jiancheng Bioengineering Institute, China), which was developed based on the method of Fröhlich et al.. […] All assays were performed in triplicate.

Setting [3] is: read-out: IC50, inhibitory effect on AR activity.
Setting [4] is: compound at 0.5 μg·mL^-1, 250 mmol·L^-1 D-galactose, 72 h.
[5] abbreviates: compound at 1.0 μg·mL^-1, 250 mmol·L^-1 D-galactose, 72 h.
Where [6] appears, read: compound at 0.1 μg·mL^-1, 250 mmol·L^-1 D-galactose, 72 h.

`COc1cc(CCc2cc(OC)cc(OC)c2)cc(OC)c1` [Compound 4, 1,2-bis(3,5-dimethoxyphenyl)ethane] gave a melting point of 104.6 to 107.9 °C. For the same compound, the IC50 on aldose reductase (AR) (setting [3]) stood at 347 ± 3.74 µM.

`Oc1cc(O)cc(CCc2cc(O)cc(O)c2)c1` [Compound 5, 5,5'-(ethane-1,2-diyl)dibenzene-1,3-diol5,5'-(ethane-1,2-diyl)dibenzene-1,3-diol] returned a melting point of 245.9 to 248.1 °C. For the same compound, the IC50 on aldose reductase (AR) (setting [3]) came to 288.8 ± 2.16 µM. The “protection of HLECs from apoptosis (concentration not given)” value (“protection … (concentration not given)” for short) in data set [1] is “protected HLECs from apoptosis”. Further, in data set [1] (setting [4]), the “protection of HLECs from D-galactose-induced apoptosis” value is given as “protected HLECs from apoptosis”. Further, in data set [2], the IC50 stood at 432.6 ± 2.37 µM.

`CN(C)c1ccc(CCc2cc(O)cc(O)c2)cc1` [Compound 8] had a melting point of 152.5 to 154.1 °C. The half-maximal inhibitory concentration (IC50) at aldose reductase (AR) (setting [3]) stood at 513.4 ± 2.33 µM. In addition, in data set [1], the “protection … (concentration not given)” value was “protected HLECs from apoptosis”. Moreover, in data set [1] (setting [5]), the “protection of HLECs from D-galactose-induced apoptosis” value was “protected HLECs from apoptosis”.

Regarding `COc1cc(O)cc(CCc2cccc3ccccc23)c1` [Compound 10, 3-methoxy-5-(2-(naphthalen-1-yl)ethyl)phenol], the melting point fell in the range of 103.9 to 106.7 °C. Further, the IC50 on aldose reductase (AR) (setting [3]) stood at 31.2 ± 1.51 µM. Besides, on aldose reductase (AR) (more potent than 14f), the “potency in AR inhibition relative to synthetic gigantol (compound 14f)” value was found to be 9 fold. For the same compound, the “cell survival (viability) of HLECs against D-galactose-induced apoptosis” value in data set [1] (250 mmol·L^-1 D-galactose, 72 h, MTT, compounds at 0.1, 0.5 or 1.0 μg·mL^-1, percentage of Con) is on record as 72.26%. For the same compound, the “protection … (concentration not given)” value in data set [1] is listed as “protected HLECs from apoptosis”. The “protection of HLECs from D-galactose-induced apoptosis” value in data set [1] (setting [4]) is listed as “protected HLECs from apoptosis”. In addition, in data set [2], the IC50 came out at 1189 ± 3.31 µM.

As to `COc1cc(CCc2cc(OC)c(O)c(OC)c2)ccc1O` [Compound 14a, 4-(4-hydroxy-3-methoxyphenethyl)-2,6-dimethoxyphenol], the IC50 at aldose reductase (AR) (setting [3]) turned out to be 17.3 ± 1.72 µM.

Take `COc1cc(CCc2cccc(OC)c2O)ccc1O` [Compound 14b, 4-(2-hydroxy-3-methoxyphenethyl)-2-methoxyphenol]: the results for the IC50 (on aldose reductase (AR) (setting [3]); in data set [2]) were 126 ± 1.3 µM and 433.6 ± 4.23 µM, respectively. Further, in data set [1], the “protection … (concentration not given)” value is on record as “protected HLECs from apoptosis”. For the same compound, the “protection of HLECs from D-galactose-induced apoptosis” value in data set [1] (setting [6]) is “protected HLECs from apoptosis”.

Take `COc1cc(CCc2ccc(O)c(O)c2)ccc1O` [Compound 14c, 4-(4-hydroxy-3-methoxyphenethyl)benzene-1,2-diol]: the concentration for half-maximal inhibition (IC50) at aldose reductase (AR) (setting [3]) was 534 ± 5.44 µM.

In the case of `COc1cc(CCc2ccc(O)c(OC)c2)cc(OC)c1` [Compound 14d, 4-(3,5-dimethoxyphenethyl)-2-methoxyphenol], the IC50 at aldose reductase (AR) (setting [3]) is 39.2 ± 2.13 µM.

Turning to `COc1cc(CCc2cc(Cl)ccc2O)ccc1O` [Compound 14e, 4-chloro-2-(4-hydroxy-3-methoxyphenethyl)phenol], the IC50 at aldose reductase (AR) (setting [3]) is 21.8 ± 5.47 µM.

Turning to `COc1cc(O)cc(CCc2ccc(O)c(OC)c2)c1` [Compound 14f, 4-[2-(3-hydroxy-5-methoxyphenyl)ethyl]-2-methoxyphenol], the half-maximal inhibitory concentration (IC50) worked out at 176 ± 3.21 µM at aldose reductase (AR) (setting [3]) and 680.1 ± 3.28 µM in data set [2].

`COc1ccc(CCNCc2ccc(O)cc2)cc1OC` [Compound 17b, 4-((3,4-dimethoxyphenethylamino)methyl)phenol]: the melting point was 116.7 to 118.6 °C. In addition, the 50% inhibitory concentration (IC50) on aldose reductase (AR) (IC50, inhibitory effect on AR activity) is 174 ± 3.38 µM.

Turning to `COc1ccc(CNc2nc3ccccc3s2)c(O)c1` [Compound 17c, 2-((benzo[d]thiazol-2-ylamino)methyl)-5-methoxyphenol], the melting point lay within 184.3 to 185.7 °C. Moreover, the half-maximal inhibitory concentration (IC50) on aldose reductase (AR) (setting [3]) was found to be 243 ± 5.67 µM. Besides, the “protection … (concentration not given)” value in data set [1] is “protected HLECs from apoptosis”. Further, the “protection of HLECs from D-galactose-induced apoptosis” value in data set [1] (setting [6]) is given as “protected HLECs from apoptosis”.

Regarding `Oc1cc(O)cc(CCCc2ccc(F)cc2)c1` [Compound 21, 5-(3-(4-fluorophenyl)propyl)benzene-1,3-diol], the half-inhibitory concentration (IC50) at aldose reductase (AR) (setting [3]) is 556.3 ± 4.37 µM.

As to `Cc1ccc(S(=O)(=O)Nc2ccc(O)cc2)cc1` [Compound 23, N-(4-hydroxyphenyl)-4-methylbenzenesulfonamide], the IC50 at aldose reductase (AR) (setting [3]) was 5.02 ± 2.57 µM.

On to `COc1ccc(CCNC(=O)Cc2ccc(O)cc2)cc1OC` [Compound 25, N-(3,4-dimethoxyphenethyl)-2-(4-hydroxyphenyl)acetamide], for which the melting point was in the range of 151.7 to 153.2 °C. In addition, the IC50 at aldose reductase (AR) (setting [3]) was determined as 54.4 ± 2.39 µM.

For the compound `COc1cc(O)cc(CCc2ccc(O)c(OC)c2)c1` [Extractive gigantol, 4-[2-(3-hydroxy-5-methoxyphenyl)ethyl]-2-methoxyphenol, reference compound], the IC50 on aldose reductase (AR) (setting [3]) worked out at 2517 ± 10.3 µM; in data set [2] it was 32.2 ± 2.61 µM. Also, in data set [1], the “protection … (concentration not given)” value was “protected HLECs from apoptosis”. For the same compound, the “protection of HLECs from D-galactose-induced apoptosis” value in data set [1] (setting [5]) is given as “protected HLECs from apoptosis”.

By IC50 is commonly meant the concentration that gives 50% inhibition. Broadly, the melting point is the temperature of the solid-liquid transition.
